Measurements reported in article PMC3285450 (Journal of Medicinal Chemistry, 2010).

Legend:
[1] = pharmacokinetic screening by oral cassette dosing in mice; conditions: blood pharmacokinetic profile, Figure S3
in vivo = conditions: male, CFW, mouse, po, 5 mg/kg
Human sEH = target: T1, Human sEH (Homo sapiens, UniProt P34913); conditions: for improved potency over compound 40: versus compound 40, reached the LOQ of the in vitro assay
T1 sequence (P34913 1-555): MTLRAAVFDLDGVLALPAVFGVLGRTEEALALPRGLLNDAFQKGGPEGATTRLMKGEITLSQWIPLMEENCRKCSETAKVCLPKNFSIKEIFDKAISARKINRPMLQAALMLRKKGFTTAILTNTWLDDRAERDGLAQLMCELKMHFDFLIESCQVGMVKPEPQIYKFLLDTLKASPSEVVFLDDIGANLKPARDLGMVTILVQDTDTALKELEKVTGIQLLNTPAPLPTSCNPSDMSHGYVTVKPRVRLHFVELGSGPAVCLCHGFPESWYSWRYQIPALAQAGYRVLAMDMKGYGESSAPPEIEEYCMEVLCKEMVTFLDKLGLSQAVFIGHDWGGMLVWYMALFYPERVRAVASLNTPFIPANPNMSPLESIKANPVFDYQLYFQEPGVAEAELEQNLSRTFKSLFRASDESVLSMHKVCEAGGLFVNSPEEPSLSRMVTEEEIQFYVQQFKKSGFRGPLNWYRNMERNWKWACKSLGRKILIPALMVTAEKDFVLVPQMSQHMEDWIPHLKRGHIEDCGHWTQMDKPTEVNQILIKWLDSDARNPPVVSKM

murine sEH = target: T2, murine sEH (Mus musculus, UniProt P34914); test: fluorescent
T2 sequence (P34914 1-554): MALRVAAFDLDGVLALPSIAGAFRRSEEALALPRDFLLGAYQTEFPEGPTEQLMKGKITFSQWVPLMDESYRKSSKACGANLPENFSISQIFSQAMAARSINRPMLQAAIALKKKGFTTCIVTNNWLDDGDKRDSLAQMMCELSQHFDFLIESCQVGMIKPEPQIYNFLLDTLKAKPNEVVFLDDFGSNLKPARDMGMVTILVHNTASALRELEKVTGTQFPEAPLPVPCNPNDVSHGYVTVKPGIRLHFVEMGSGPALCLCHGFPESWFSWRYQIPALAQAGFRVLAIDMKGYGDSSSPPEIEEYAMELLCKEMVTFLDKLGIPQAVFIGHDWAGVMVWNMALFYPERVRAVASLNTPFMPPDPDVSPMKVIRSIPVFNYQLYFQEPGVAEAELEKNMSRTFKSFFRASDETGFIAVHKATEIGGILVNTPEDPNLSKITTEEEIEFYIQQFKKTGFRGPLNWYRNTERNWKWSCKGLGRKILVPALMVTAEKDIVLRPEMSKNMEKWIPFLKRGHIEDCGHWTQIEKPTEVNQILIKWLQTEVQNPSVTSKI

[2] = system: carrageenan induced inflammatory pain; format: in vivo, Male Sprague-Dawley rats; conditions: for reversal of carrageenan induced pain (mechanical withdrawal threshold): rats, intraplantar, 3 hr after carrageenan, sEHi 10 ng/paw, morphine 10,000 ng/paw, n=6
hydrolytic stability = format: physicochemical

## CC(=O)N1CCC(NC(=O)NC23CC4CC(CC(C4)C2)C3)CC1 [APAU]
[1]
  AUC: small
  halflife: very short

## O=C(O)CCCCCCCCCCCNC(=O)NC12CC3CC(CC(C3)C1)C2 [AUDA, 12-(3-adamantane-1-yl-ureido)dodecanoic acid, reference compound]
In vivo
  AUC(0-t): 0.05 µM·h

## CCC(=O)N1CCC(NC(=O)Nc2ccccc2)CC1 [Compound 7]
Human sEH; versus compound 4
  drop in potency against the human enzyme versus cyclohexyl compound 4: 11 fold

## CCC(=O)N1CCC(NC(=O)Nc2cccc(F)c2)CC1 [Compound 28]
Human sEH; versus compound 24
  lower IC50 than para-fluorophenyl 24, human enzyme: 2 fold
Murine sEH; versus compound 24
  lower IC50 than para-fluorophenyl 24, murine enzyme: 5 fold

## O=C(Nc1ccc(OC(F)(F)F)cc1)NC1CCN(C(=O)C2CC2)CC1 [Compound 52, 1-(1-(cyclopropanecarbonyl)piperidin-4-yl)-3-(4-(trifluoromethoxy)phenyl)urea]
[2]; mechanical withdrawal threshold, carrageenan model
  increase in potency compared to morphine, reducing hyperalgesia: 1000 fold
[2]
  reversal of carrageenan induced pain (mechanical withdrawal threshold): significantly reversed carrageenan induced pain
Human sEH; versus compound 2
  increase in potency over adamantane analogue 2: 7 fold
Human sEH
  improved potency over compound 40: approximately 9 fold
In vivo
  AUC(0-t): 164 µM·h
  Cmax: 8.9 µM
  Tmax: 3.17 h
  half-life: 19.7 h
Murine sEH; Figure S5, versus AUDA
  improvement from AUDA, exposure in murine blood and murine potency data: 10^5

## O=C(Nc1ccc(OC(F)(F)F)cc1)NC1CCN(C(=O)C(F)(F)F)CC1 [Compound 53]
Hydrolytic stability
  hydrolytic stability: hydrolytic instability
Human sEH
  improved potency over compound 40: approximately 9 fold

## CN1CC[C@]23c4c5ccc(O)c4O[C@H]2[C@@H](O)C=C[C@H]3[C@H]1C5 [morphine, reference compound]
[2]
  reversal of carrageenan induced pain (mechanical withdrawal threshold): significantly reversed carrageenan induced pain
